Measurements taken from patent US8975398B2, “NAMPT inhibitors” (AbbVie Inc., priority 2012, dated 2015).

Key:
[1] = biological target: NAMPT (human, recombinant, C-terminally His-tagged) (Homo sapiens, UniProt P43490); assay: Time-Resolved Fluorescence Resonance Energy Transfer (TR-FRET) Binding Assay of NAMPT; conditions: 6.8 nM NAMPT, 200 nM probe, equilibrated 3 hours, absence of substrates
Protocol: Determination of the utility of compounds having Formula (I) as binders to and inhibitors of NAMPT was performed using Time-Resolved Fluorescence Resonance Energy Transfer (TR-FRET) binding assays.
Time-Resolved Fluorescence Resonance Energy Transfer (TR-FRET) Binding Assay of NAMPT
Test compounds were serially diluted (typically 11 half log dilutions) in neat DMSO to 50× final concentrations prior to dilution with assay buffer (50 mM HEPES (NaOH), pH 7.5, 100 mM NaCl, 10 mM MgCl2, 1 mM DTT, 1% Glycerol) to 3× and 6% DMSO. Six μL were transferred to 384-well low-volume plates (Owens Corning #3673). To this, 12 μL of a 1.5× solution containing enzyme, probe and antibody were added. Final concentrations in the 18 μL, reactions were 1× assay buffer, 2% DMSO, 6.8 nM NAMPT (human, recombinant, C-terminally His-tagged), 200 nM probe (a potent nicotinamide-competitive inhibitor conjugated to Oregon Green 488) and 1 nM Tb-anti-His antibody (Invitrogen #PV5895). Reactions were equilibrated at room temperature for 3 hours prior to reading on an Envision multi-label plate reader (Perkin Elmer; Ex=337 nm, Em=520 and 495 nm). Time-resolved FRET ratios (Em520/Em495) were normalized to controls, plotted as a function of compound concentration and fit with the four-parameter logistic equation to determine IC50s.

[2] = biological target: NAMPT (Homo sapiens, UniProt P43490); assay: Time-Resolved Fluorescence Resonance Energy Transfer (TR-FRET) Binding Assay of NAMPT with PRPP; conditions: 2 nM NAMPT, 2 nM probe, 200 uM PRPP and 2.5 mM ATP, equilibrated 16 hours
Sequence of NAMPT (P43490 whole entry): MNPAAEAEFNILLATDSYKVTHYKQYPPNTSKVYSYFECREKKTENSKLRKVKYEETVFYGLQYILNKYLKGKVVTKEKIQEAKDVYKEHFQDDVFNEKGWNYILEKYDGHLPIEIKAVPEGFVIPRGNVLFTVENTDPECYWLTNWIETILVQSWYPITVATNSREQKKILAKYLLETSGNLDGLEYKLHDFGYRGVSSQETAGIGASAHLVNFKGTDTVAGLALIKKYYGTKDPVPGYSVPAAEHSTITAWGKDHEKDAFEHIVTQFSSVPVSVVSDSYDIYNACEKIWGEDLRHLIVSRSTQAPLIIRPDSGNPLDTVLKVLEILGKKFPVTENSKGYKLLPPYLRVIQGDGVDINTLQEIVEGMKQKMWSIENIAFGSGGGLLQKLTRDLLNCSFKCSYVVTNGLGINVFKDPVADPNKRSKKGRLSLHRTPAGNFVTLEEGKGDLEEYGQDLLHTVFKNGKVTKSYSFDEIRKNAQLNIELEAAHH
Protocol: Time-Resolved Fluorescence Resonance Energy Transfer (TR-FRET) Binding Assay of NAMPT with PRPP
Compound handling and data processing were identical to the assay in the absence of substrates (above). Final concentrations were 1× assay buffer, 2% DMSO, 2 nM NAMPT, 2 nM probe, 1 nM Tb-anti-His antibody (Invitrogen #PV5895), 200 uM PRPP and 2.5 mM ATP. Reactions were equilibrated for 16 hours prior to measurement to allow for potential enzymatic modification of test compounds.

Sequence of NAMPT (human, recombinant, C-terminally His-tagged) (P43490 whole entry): as above

## CC(C)(C)CC(=O)N1CCC(c2ccc(NC(=O)C3CN(c4ccnnc4)C3)cc2)CC1 [Example 140, N-{4-[1-(3,3-dimethylbutanoyl)piperidin-4-yl]phenyl}-1-(pyridazin-4-yl)azetidine-3-carboxamide]
[1]
  IC50: 11 nM
[2]
  IC50: 8.87 nM

## Cc1ncccc1N1CC(C(=O)Nc2ccc(C3CCN(C(=O)c4cccc(Cl)c4)CC3)cc2)C1 [Example 153, N-{4-[1-(3-chlorobenzoyl)piperidin-4-yl]phenyl}-1-(2-methylpyridin-3-yl)azetidine-3-carboxamide]
[1]
  IC50: 266 nM
[2]
  IC50: 122 nM

## CC1(C(=O)N2CCC(Oc3ccc(NC(=O)C4CN(c5cccnc5)C4)cc3)CC2)CCCCC1 [Example 53, N-[4-({1-[(1-methylcyclohexyl)carbonyl]piperidin-4-yl}oxy)phenyl]-1-(pyridin-3-yl)azetidine-3-carboxamide]
[1]
  IC50: 25.6 nM
[2]
  IC50: 0.689 nM

## CC(C)(C)OC(=O)N1CCC(c2ccc(C(=O)NC3CN(c4cccnn4)C3)cc2)CC1 [Example 314, tert-butyl 4-(4-{[1-(pyridazin-3-yl)azetidin-3-yl]carbamoyl}phenyl)piperidine-1-carboxylate]
[1]
  IC50: 3860 nM
[2]
  IC50: 0.572 nM

## CCC(C)(C)C(=O)N1CCC(Oc2ccc(NC(=O)C3CN(c4cccnc4)C3)cc2)CC1 [Example 40, N-(4-{[1-(2,2-dimethylbutanoyl)piperidin-4-yl]oxy}phenyl)-1-(pyridin-3-yl)azetidine-3-carboxamide]
[1]
  IC50: 42.8 nM
[2]
  IC50: 0.49 nM

## O=C(Nc1ccc(OC2CCN(C(=O)CC3CCCCC3)CC2)cc1)C1CN(c2cccnc2)C1 [Example 50, N-(4-{[1-(cyclohexylacetyl)piperidin-4-yl]oxy}phenyl)-1-(pyridin-3-yl)azetidine-3-carboxamide]
[1]
  IC50: 63.5 nM
[2]
  IC50: 1.1 nM

## O=C(Nc1ccc(OC2CCN(C(=O)c3cccs3)CC2)cc1)C1CN(c2cccnc2)C1 [Example 61, 1-(pyridin-3-yl)-N-(4-{[1-(thiophen-2-ylcarbonyl)piperidin-4-yl]oxy}phenyl)azetidine-3-carboxamide]
[1]
  IC50: 33.7 nM
[2]
  IC50: 0.675 nM

## CCOCC(=O)N1CCC(c2ccc(NC(=O)C3CN(c4cccnc4)C3)cc2)CC1 [Example 131, N-{4-[1-(ethoxyacetyl)piperidin-4-yl]phenyl}-1-(pyridin-3-yl)azetidine-3-carboxamide]
[1]
  IC50: 69.9 nM
[2]
  IC50: 0.474 nM

## O=C(Nc1ccc(OC2CN(C(=O)CC(F)(F)F)C2)cc1)C1CN(c2ccnnc2)C1 [Example 258, 1-(pyridazin-4-yl)-N-(4-{[1-(3,3,3-trifluoropropanoyl)azetidin-3-yl]oxy}phenyl)azetidine-3-carboxamide]
[1]
  IC50: 108 nM
[2]
  IC50: 34.8 nM

## O=C(Nc1ccc(OC2CCN(C(=O)c3ccc(OC(F)(F)F)cc3)CC2)cc1)C1CN(c2cccnn2)C1 [Example 235, 1-(pyridazin-3-yl)-N-[4-({1-[4-(trifluoromethoxy)benzoyl]piperidin-4-yl}oxy)phenyl]azetidine-3-carboxamide]
[1]
  IC50: 283 nM
[2]
  IC50: 1.41 nM

## Cc1cc(C)cc(C(=O)N2CCC(c3ccc(NC(=O)C4CN(c5cccnn5)C4)cc3)CC2)c1 [Example 361, N-{4-[1-(3,5-dimethylbenzoyl)piperidin-4-yl]phenyl}-1-(pyridazin-3-yl)azetidine-3-carboxamide]
[1]
  IC50: 37.4 nM
[2]
  IC50: 0.988 nM

## CC(C)C(=O)N1CCC(Oc2ccc(NC(=O)C3CN(c4cccnn4)C3)cc2)CC1 [Example 253, N-(4-{[1-(2-methylpropanoyl)piperidin-4-yl]oxy}phenyl)-1-(pyridazin-3-yl)azetidine-3-carboxamide]
[1]
  IC50: 134 nM
[2]
  IC50: 0.639 nM

## Cc1ccc(C(=O)N2CCC(c3ccc(NC(=O)C4CN(c5cccnc5C)C4)cc3)CC2)s1 [Example 186, 1-(2-methylpyridin-3-yl)-N-(4-{1-[(5-methylthiophen-2-yl)carbonyl]piperidin-4-yl}phenyl)azetidine-3-carboxamide]
[1]
  IC50: 98.9 nM
[2]
  IC50: 118 nM

## Cc1ncccc1N1CC(C(=O)Nc2ccc(C3CCN(C(=O)c4ccco4)CC3)cc2)C1 [Example 189, N-{4-[1-(furan-2-ylcarbonyl)piperidin-4-yl]phenyl}-1-(2-methylpyridin-3-yl)azetidine-3-carboxamide]
[1]
  IC50: 6.91 nM
[2]
  IC50: 26.9 nM

## CC1(C(=O)N2CCC(c3ccc(NC(=O)C4CN(c5cccnn5)C4)cc3)CC2)CC1 [Example 379, N-(4-{1-[(1-methylcyclopropyl)carbonyl]piperidin-4-yl}phenyl)-1-(pyridazin-3-yl)azetidine-3-carboxamide]
[1]
  IC50: 15.9 nM
[2]
  IC50: 0.432 nM

## Cc1ncccc1N1CC(C(=O)Nc2ccc(C3CCN(C(=O)CC4CCCC4)CC3)cc2)C1 [Example 162, N-{4-[1-(cyclopentylacetyl)piperidin-4-yl]phenyl}-1-(2-methylpyridin-3-yl)azetidine-3-carboxamide]
[1]
  IC50: 144 nM
[2]
  IC50: 71 nM

## O=C(Nc1ccc(OC2CCN(C(=O)C3CCCO3)CC2)cc1)C1CN(c2ccnnc2)C1 (stereo not drawn) [Example 302, 1-(pyridazin-4-yl)-N-(4-{[1-(tetrahydrofuran-2-ylcarbonyl)piperidin-4-yl]oxy}phenyl)azetidine-3-carboxamide]
[1]
  IC50: 150 nM
[2]
  IC50: 48.3 nM

## CC[C@H](C)C(=O)N1CC(Oc2ccc(NC(=O)C3CN(c4ccnnc4)C3)cc2)C1 [Example 265, N-[4-({1-[(2S)-2-methylbutanoyl]azetidin-3-yl}oxy)phenyl]-1-(pyridazin-4-yl)azetidine-3-carboxamide]
[1]
  IC50: 29.5 nM
[2]
  IC50: 21.8 nM

## O=C(Nc1ccc(OC2CCN(C(=O)CC(F)(F)F)CC2)cc1)C1CN(c2cccnn2)C1 [Example 252, 1-(pyridazin-3-yl)-N-(4-{[1-(3,3,3-trifluoropropanoyl)piperidin-4-yl]oxy}phenyl)azetidine-3-carboxamide]
[1]
  IC50: 238 nM
[2]
  IC50: 1.1 nM

## N#Cc1ccc(C(=O)N2CCC(c3ccc(NC(=O)C4CN(c5cccnn5)C4)cc3)CC2)cc1 [Example 353, N-{4-[1-(4-cyanobenzoyl)piperidin-4-yl]phenyl}-1-(pyridazin-3-yl)azetidine-3-carboxamide]
[1]
  IC50: 88.2 nM
[2]
  IC50: 0.472 nM

## O=C(Nc1ccc(C2CCN(CC3CCCC3)CC2)cc1)C1CN(c2cccnc2)C1 [Example 88, N-{4-[1-(cyclopentylmethyl)piperidin-4-yl]phenyl}-1-(pyridin-3-yl)azetidine-3-carboxamide]
[1]
  IC50: 574 nM
[2]
  IC50: 0.64 nM

## CC(C)(C)CC(=O)N1CCC(Oc2ccc(NC(=O)C3CN(c4ccnnc4)C3)cc2)CC1 [Example 260, N-(4-{[1-(3,3-dimethylbutanoyl)piperidin-4-yl]oxy}phenyl)-1-(pyridazin-4-yl)azetidine-3-carboxamide]
[1]
  IC50: 75.4 nM
[2]
  IC50: 19 nM

## Cc1ncccc1N1CC(C(=O)Nc2ccc(C3CCN(C(=O)CN4CCCC4)CC3)cc2)C1 [Example 166, 1-(2-methylpyridin-3-yl)-N-{4-[1-(pyrrolidin-1-ylacetyl)piperidin-4-yl]phenyl}azetidine-3-carboxamide]
[1]
  IC50: 2270 nM
[2]
  IC50: 206 nM

## O=C(Nc1ccc(OC2CN(C(=O)C3CCC(F)(F)CC3)C2)cc1)C1CN(c2ccnnc2)C1 [Example 202, N-[4-({1-[(4,4-difluorocyclohexyl)carbonyl]azetidin-3-yl}oxy)phenyl]-1-(pyridazin-4-yl)azetidine-3-carboxamide]
[1]
  IC50: 117 nM
[2]
  IC50: 89.5 nM

## COCCOCC(=O)N1CCC(c2ccc(NC(=O)C3CN(c4cccnc4)C3)cc2)CC1 [Example 123, N-(4-{1-[(2-methoxyethoxy)acetyl]piperidin-4-yl}phenyl)-1-(pyridin-3-yl)azetidine-3-carboxamide]
[1]
  IC50: 65.6 nM
[2]
  IC50: 0.282 nM

## O=C(Nc1ccc(OC2CCN(C(=O)c3cccc(F)c3)CC2)cc1)C1CN(c2ccnnc2)C1 [Example 286, N-(4-{[1-(3-fluorobenzoyl)piperidin-4-yl]oxy}phenyl)-1-(pyridazin-4-yl)azetidine-3-carboxamide]
[1]
  IC50: 127 nM
[2]
  IC50: 66.4 nM

## CC(C)(C)OC(=O)N1CCC(Oc2ccc(C(=O)N[C@@H]3CCN(c4cccnc4)C3)cc2)CC1 [Example 28, tert-butyl 4-(4-{[(3R)-1-(pyridin-3-yl)pyrrolidin-3-yl]carbamoyl}phenoxy)piperidine-1-carboxylate]
[2]
  IC50: 2.51 nM

## CC(C)(C)OC(=O)N1CCC(Oc2ccc(C(=O)N[C@H]3CCN(c4cccnc4)C3)cc2)CC1 [Example 27, tert-butyl 4-(4-{[(3S)-1-(pyridin-3-yl)pyrrolidin-3-yl]carbamoyl}phenoxy)piperidine-1-carboxylate]
[2]
  IC50: 11.2 nM
